Data: ChEMBL document CHEMBL4813950, “Comparing the efficacy and selectivity of Ck2 inhibitors. A phosphoproteomics approach” (Eur J Med Chem, 2021)
Activity calls are given as the source filed them. No cut-off for these calls is given here.

Tests used:
Format in all cases: cell-based
[1] = target: WASH complex subunit 2 (Mus musculus) (UniProt Q6PGL7); assay: Inhibition of Washc2 in mouse C2C12 cells assessed as reduction in phospho-sites occupancy at 4 uM after 5 hrs by SILAC based LC-MS/MS analysis relative to control
[2] = target: La-related protein 1 (Mus musculus) (UniProt Q6ZQ58); assay: Inhibition of Larp1 in mouse C2C12 cells assessed as reduction in phospho-sites occupancy at 4 uM after 5 hrs by SILAC based LC-MS/MS analysis relative to control
[3] = target: Transcriptional regulator ATRX (Mus musculus) (UniProt Q61687); assay: Inhibition of ATRX in mouse C2C12 cells assessed as reduction in phospho-sites occupancy at 4 uM after 5 hrs by SILAC based LC-MS/MS analysis relative to control
[4] = target: T1, Casein kinase 2 (Mus musculus) (UniProt Q60737+P67871+O54833+Q8CH19); assay: Inhibition of CK2 in mouse C2C12 cells assessed as reduction in CDC37 phosphorylation at S13 residues at 1 to 4 uM by Western blot analysis; conditions: dose 1-4 µM
[5] = target: Nucleolar RNA helicase 2 (Mus musculus) (UniProt Q9JIK5); assay: Inhibition of Ddx21 in mouse C2C12 cells assessed as reduction in phospho-sites occupancy at 4 uM after 5 hrs by SILAC based LC-MS/MS analysis relative to control
[6] = target: Dihydropyrimidinase-related protein 3 (Mus musculus) (UniProt Q62188); assay: Inhibition of Dihydropyrimidinase-related protein 3 in mouse C2C12 cells assessed as reduction in phospho-sites occupancy at 4 uM after 5 hrs by SILAC based LC-MS/MS analysis relative to control
[7] = target: Centrosomal protein of 170 kDa (Mus musculus) (UniProt Q6A065); assay: Inhibition of Cep170 in mouse C2C12 cells assessed as reduction in phospho-sites occupancy at 4 uM after 5 hrs by SILAC based LC-MS/MS analysis relative to control
[8] = target: tRNA (guanine(26)-N(2))-dimethyltransferase (Mus musculus) (UniProt Q3TX08); assay: Inhibition of Trmt1 in mouse C2C12 cells assessed as reduction in phospho-sites occupancy at 4 uM after 5 hrs by SILAC based LC-MS/MS analysis relative to control
[9] = target: Pleckstrin homology-like domain family B member 1 (Mus musculus) (UniProt Q6PDH0); assay: Inhibition of Phldb1 in mouse C2C12 cells assessed as reduction in phospho-sites occupancy at 4 uM after 5 hrs by SILAC based LC-MS/MS analysis relative to control
[10] = target: Serine/arginine repetitive matrix protein 1 (Mus musculus) (UniProt Q52KI8); assay: Inhibition of Srrm1 in mouse C2C12 cells assessed as reduction in phospho-sites occupancy at 4 uM after 5 hrs by SILAC based LC-MS/MS analysis relative to control
[11] = target: Autophagy-related protein 9A (Mus musculus) (UniProt Q68FE2); assay: Inhibition of Atg9a in mouse C2C12 cells assessed as reduction in phospho-sites occupancy at 4 uM after 5 hrs by SILAC based LC-MS/MS analysis relative to control
[12] = target: Desmoyokin (Mus musculus) (UniProt Q61484); assay: Inhibition of AHNAK in mouse C2C12 cells assessed as reduction in phospho-sites occupancy at 4 uM after 5 hrs by SILAC based LC-MS/MS analysis relative to control
[13] = target: Rho GTPase-activating protein 35 (Mus musculus) (UniProt Q91YM2); assay: Inhibition of Arhgap35 in mouse C2C12 cells assessed as reduction in phospho-sites occupancy at 4 uM after 5 hrs by SILAC based LC-MS/MS analysis relative to control
[14] = target: DNA replication licensing factor MCM2 (Mus musculus) (UniProt P97310); assay: Inhibition of Mcm2 in mouse C2C12 cells assessed as reduction in phospho-sites occupancy at 4 uM after 5 hrs by SILAC based LC-MS/MS analysis relative to control
[15] = target: Protein transport protein Sec31A (Mus musculus) (UniProt Q3UPL0); assay: Inhibition of Sec31a in mouse C2C12 cells assessed as reduction in phospho-sites occupancy at 4 uM after 5 hrs by SILAC based LC-MS/MS analysis relative to control
[16] = target: Lamina-associated polypeptide 2, isoforms beta/delta/epsilon/gamma (Mus musculus) (UniProt Q61029); assay: Inhibition of LAP2B epsilon in mouse C2C12 cells assessed as reduction in phospho-sites occupancy at 4 uM after 5 hrs by SILAC based LC-MS/MS analysis relative to control
[17] = target: 1-phosphatidylinositol 4,5-bisphosphate phosphodiesterase delta-3 (Mus musculus) (UniProt Q8K2J0); assay: Inhibition of Plcd3 in mouse C2C12 cells assessed as reduction in phospho-sites occupancy at 4 uM after 5 hrs by SILAC based LC-MS/MS analysis relative to control
[18] = target: EH domain-containing protein 2 (Mus musculus) (UniProt Q8BH64); assay: Inhibition of Ehd2 in mouse C2C12 cells assessed as reduction in phospho-sites occupancy at 4 uM after 5 hrs by SILAC based LC-MS/MS analysis relative to control
[19] = target: T1, Casein kinase 2 (Mus musculus); assay: Inhibition of CK2 in mouse C2C12 cells assessed as reduction in Akt phosphorylation at S129 residues at 1 to 4 uM by Western blot analysis; conditions: dose 1-4 µM
[20] = target: T1, Casein kinase 2 (Mus musculus); assay: Inhibition of CK2 in mouse C2C12 cells assessed as reduction in CK2 substrates phosphorylation at 1 to 4 uM by Western blot analysis; conditions: dose 1-4 µM
[21] = target: E3 ubiquitin-protein ligase NEDD4 (Mus musculus) (UniProt P46935); assay: Inhibition of Nedd4 in mouse C2C12 cells assessed as reduction in phospho-sites occupancy at 4 uM after 5 hrs by SILAC based LC-MS/MS analysis relative to control
Kinectin (Mus musculus) = Kinectin (Mus musculus) (UniProt Q61595); assay: Inhibition of Ktn1 in mouse C2C12 cells assessed as reduction in phospho-sites occupancy at 4 uM after 5 hrs by SILAC based LC-MS/MS analysis relative to control
[22] = target: Cyclin-dependent kinase 4 (Mus musculus) (UniProt P30285); assay: Inhibition of Cdk4 in mouse C2C12 cells assessed as reduction in phospho-sites occupancy at 4 uM after 5 hrs by SILAC based LC-MS/MS analysis relative to control
[23] = target: Fermitin family homolog 2 (Mus musculus) (UniProt Q8CIB5); assay: Inhibition of Fermt2 in mouse C2C12 cells assessed as reduction in phospho-sites occupancy at 4 uM after 5 hrs by SILAC based LC-MS/MS analysis relative to control

In the case of `O=C(O)c1ccc2c(c1)nc(Nc1cccc(Cl)c1)c1ccncc12`, the fold change (FC) [1] is reported as 3.41, the fold change (FC) [2] is reported as 1.84 and the fold change (FC) [3] is reported as 2.22. For the same molecule, the inhibition [4] was “Active”, the fold change (FC) [5] was 1.85 and the fold change (FC) [6] was 2.57. For the same molecule, the fold change (FC) [7] was 1.56, the fold change (FC) [8] was 1.54 and the fold change (FC) [9] was 2.12. It also gave a fold change (FC) [10] of 1.7, a fold change (FC) [11] of 1.5 and a fold change (FC) [12] of 1.54. It also gave a fold change (FC) [13] of 1.95, a fold change (FC) [14] of 1.83 and a fold change (FC) [15] of 2.28. The fold change (FC) [16] was 1.82, the fold change (FC) [17] was 2.53 and the fold change (FC) [18] was 1.65. For the same molecule, the inhibition [19] was “Active”, the inhibition [20] was “Active” and the fold change (FC) [21] was 3.66. The fold change (FC) (Kinectin (Mus musculus)) was 1.54, the fold change (FC) [22] was 2.6 and the fold change (FC) [23] was 2.53.
